Laboratory results: ChEMBL document CHEMBL4177571, “Synthesis and biological evaluation of a new series of cinnamic acid amide derivatives as potent haemostatic agents containing a 2-aminothiazole substructure” (Bioorg Med Chem Lett, 2017)
One block for each compound: values may come before it.

Key:
Plasma [1] = assay: Haemostatic activity in human plasma assessed as change in rate of prothrombin time at 100 uM after 3 mins by thromboplastic agent based assay relative to control; format: functional
Plasma [2] = assay: Haemostatic activity in human plasma assessed as change in rate of thrombin time at 5 uM after 3 mins by thrombin agent based assay relative to control; format: functional
Plasma [3] = assay: Haemostatic activity in human plasma assessed as change in rate of thrombin time at 50 uM after 3 mins by thrombin agent based assay relative to control; format: functional
Plasma [4] = assay: Haemostatic activity in human plasma assessed as change in rate of activated partial thromboplastin time at 50 uM after 3 mins relative to control; format: functional
Plasma [5] = assay: Haemostatic activity in human plasma assessed as change in rate of thrombin time at 100 uM after 3 mins by thrombin agent based assay relative to control; format: functional
Plasma [6] = assay: Haemostatic activity in human plasma assessed as change in rate of activated partial thromboplastin time at 100 uM after 3 mins relative to control; format: functional
[7] = Thermal stability of the compound at 150 degC by thermogravimetric assay; format: physicochemical
Plasma [8] = assay: Haemostatic activity in human plasma assessed as change in rate of activated partial thromboplastin time at 5 uM after 3 mins relative to control; format: functional
Plasma [9] = assay: Haemostatic activity in human plasma assessed as change in rate of prothrombin time at 10 uM after 3 mins by thromboplastic agent based assay relative to control; format: functional
Plasma [10] = assay: Haemostatic activity in human plasma assessed as change in rate of activated partial thromboplastin time at 1 uM after 3 mins relative to control; format: functional
Plasma [11] = assay: Haemostatic activity in human plasma assessed as change in rate of prothrombin time at 50 uM after 3 mins by thromboplastic agent based assay relative to control; format: functional
Plasma [12] = assay: Haemostatic activity in human plasma assessed as change in rate of thrombin time at 10 uM after 3 mins by thrombin agent based assay relative to control; format: functional
Plasma [13] = assay: Haemostatic activity in human plasma assessed as change in rate of thrombin time at 1 uM after 3 mins by thrombin agent based assay relative to control; format: functional
Plasma [14] = assay: Haemostatic activity in human plasma assessed as change in rate of prothrombin time at 5 uM after 3 mins by thromboplastic agent based assay relative to control; format: functional
Plasma [15] = assay: Inhibition of ADP-induced platelet aggregation in human plasma; format: functional
Plasma [16] = assay: Haemostatic activity in human plasma assessed as change in rate of activated partial thromboplastin time at 10 uM after 3 mins relative to control; format: functional
Plasma [17] = assay: Haemostatic activity in human plasma assessed as change in rate of prothrombin time at 1 uM after 3 mins by thromboplastic agent based assay relative to control; format: functional

Stability [7]: Stable
IC50 (Plasma [15]): 45.1 µM
Structure (SMILES): O=C(CCc1ccccc1)Nc1nccs1
Activity (Plasma [1]): 0%
Activity (Plasma [2]): -4.6%
Activity (Plasma [3]): -7.02%
Activity (Plasma [4]): -1.56%
Activity (Plasma [5]): -7.93%
Activity (Plasma [6]): 0.28%
Activity (Plasma [8]): -2.42%
Activity (Plasma [9]): -3.19%
Activity (Plasma [10]): 1%
Activity (Plasma [11]): -2.81%
Activity (Plasma [12]): -5.33%
Activity (Plasma [13]): -3.15%
Activity (Plasma [14]): -2.44%
Activity (Plasma [16]): -1.85%
Activity (Plasma [17]): -0.56%

Stability [7]: Stable
IC50 (Plasma [15]): 54.5 µM
Structure (SMILES): COc1ccc(/C=C/C(=O)Nc2nccs2)cc1OC
Activity (Plasma [1]): -2.99%
Activity (Plasma [2]): -16.04%
Activity (Plasma [3]): -23.82%
Activity (Plasma [4]): -0.56%
Activity (Plasma [5]): -14.62%
Activity (Plasma [6]): 1.97%
Activity (Plasma [8]): -6.47%
Activity (Plasma [9]): -0.22%
Activity (Plasma [10]): -0.14%
Activity (Plasma [11]): -1.49%
Activity (Plasma [12]): -22.41%
Activity (Plasma [13]): -14.62%
Activity (Plasma [14]): 0.28%
Activity (Plasma [16]): -1.41%
Activity (Plasma [17]): -1.7%

Stability [7]: Stable
IC50 (Plasma [15]): 18.1 µM
Structure (SMILES): COc1cc(/C=C/C(=O)Nc2nccs2)cc(OC)c1OC
Activity (Plasma [1]): 2.55%
Activity (Plasma [2]): -22.17%
Activity (Plasma [3]): -21.7%
Activity (Plasma [4]): 1.96%
Activity (Plasma [5]): -50.24%
Activity (Plasma [6]): 1.69%
Activity (Plasma [8]): 1.55%
Activity (Plasma [9]): 3.22%
Activity (Plasma [10]): 0.56%
Activity (Plasma [11]): 0.55%
Activity (Plasma [12]): -10.14%
Activity (Plasma [13]): -29.01%
Activity (Plasma [14]): -0.95%
Activity (Plasma [16]): 2.25%
Activity (Plasma [17]): 0.56%

Stability [7]: Stable
IC50 (Plasma [15]): 73.7 µM
Structure (SMILES): COc1ccc(/C=C/C(=O)Nc2nccs2)cc1
Activity (Plasma [1]): -6.75%
Activity (Plasma [2]): -7.51%
Activity (Plasma [3]): -13.8%
Activity (Plasma [4]): 0.28%
Activity (Plasma [5]): -16.95%
Activity (Plasma [6]): -0.71%
Activity (Plasma [8]): -2.7%
Activity (Plasma [9]): 0%
Activity (Plasma [10]): -1.28%
Activity (Plasma [11]): -0.75%
Activity (Plasma [12]): -8.23%
Activity (Plasma [13]): -6.54%
Activity (Plasma [14]): -2.27%
Activity (Plasma [16]): 0.14%
Activity (Plasma [17]): -1.51%

Stability [7]: Stable
IC50 (Plasma [15]): 58.1 µM
Structure (SMILES): CC(=O)Oc1ccc(/C=C/C(=O)Nc2nccs2)cc1
Activity (Plasma [1]): 1.2%
Activity (Plasma [2]): -14.54%
Activity (Plasma [3]): -21.15%
Activity (Plasma [4]): -2.71%
Activity (Plasma [5]): -6.39%
Activity (Plasma [6]): -2.45%
Activity (Plasma [8]): -3.1%
Activity (Plasma [9]): -5.29%
Activity (Plasma [10]): -1.68%
Activity (Plasma [11]): -4.3%
Activity (Plasma [12]): -22.03%
Activity (Plasma [13]): -11.45%
Activity (Plasma [14]): -4.4%
Activity (Plasma [16]): -3.88%
Activity (Plasma [17]): -3.2%

Stability [7]: Stable
IC50 (Plasma [15]): 25.5 µM
Structure (SMILES): COc1cc(/C=C/C(=O)Nc2nccs2)ccc1OC(C)=O
Activity (Plasma [1]): -7.32%
Activity (Plasma [2]): -7.88%
Activity (Plasma [3]): -12.35%
Activity (Plasma [4]): -6.28%
Activity (Plasma [5]): -11.06%
Activity (Plasma [6]): -1.85%
Activity (Plasma [8]): -2.57%
Activity (Plasma [9]): -4.39%
Activity (Plasma [10]): -1.14%
Activity (Plasma [11]): -5.77%
Activity (Plasma [12]): -13.06%
Activity (Plasma [13]): -5.76%
Activity (Plasma [14]): -2.24%
Activity (Plasma [16]): -3.42%
Activity (Plasma [17]): -1.98%

Stability [7]: Stable
IC50 (Plasma [15]): 36.6 µM
Structure (SMILES): O=C(/C=C/c1ccccc1)Nc1nccs1
Activity (Plasma [1]): -3.7%
Activity (Plasma [2]): -10.79%
Activity (Plasma [3]): -13.66%
Activity (Plasma [4]): -6.72%
Activity (Plasma [5]): -9.69%
Activity (Plasma [6]): -2.71%
Activity (Plasma [8]): -5.81%
Activity (Plasma [9]): -5.59%
Activity (Plasma [10]): -4.78%
Activity (Plasma [11]): -4.4%
Activity (Plasma [12]): -11.23%
Activity (Plasma [13]): -7.93%
Activity (Plasma [14]): -7.09%
Activity (Plasma [16]): -9.95%
Activity (Plasma [17]): -5.69%

Stability [7]: Stable
IC50 (Plasma [15]): 1.87 µM
Structure (SMILES): CC(=O)Oc1ccccc1/C=C/C(=O)Nc1nccs1
Activity (Plasma [1]): -1.78%
Activity (Plasma [2]): -13.46%
Activity (Plasma [3]): -26.2%
Activity (Plasma [4]): -8.15%
Activity (Plasma [5]): -21.88%
Activity (Plasma [6]): -6.12%
Activity (Plasma [8]): -9.51%
Activity (Plasma [9]): -4.62%
Activity (Plasma [10]): -5.55%
Activity (Plasma [11]): -2.2%
Activity (Plasma [12]): -21.39%
Activity (Plasma [13]): -2.4%
Activity (Plasma [14]): -3.25%
Activity (Plasma [16]): -8.61%
Activity (Plasma [17]): -1.68%

Stability [7]: Stable
IC50 (Plasma [15]): 35.5 µM
Structure (SMILES): CC(=O)Oc1cccc(/C=C/C(=O)Nc2nccs2)c1
Activity (Plasma [1]): -0.84%
Activity (Plasma [2]): -7.21%
Activity (Plasma [3]): -19.95%
Activity (Plasma [4]): -9.06%
Activity (Plasma [5]): -21.64%
Activity (Plasma [6]): -8.61%
Activity (Plasma [8]): -6.57%
Activity (Plasma [9]): -0.73%
Activity (Plasma [10]): -4.64%
Activity (Plasma [11]): -0.42%
Activity (Plasma [12]): -15.39%
Activity (Plasma [13]): -5.05%
Activity (Plasma [14]): -1.05%
Activity (Plasma [16]): -10.19%
Activity (Plasma [17]): -0.1%

Stability [7]: Stable
IC50 (Plasma [15]): 75.6 µM
Structure (SMILES): CC(=O)Oc1ccc(/C=C/C(=O)Nc2nccs2)cc1OC(C)=O
Activity (Plasma [1]): -3.88%
Activity (Plasma [2]): -30.77%
Activity (Plasma [3]): -27.89%
Activity (Plasma [4]): -2.04%
Activity (Plasma [5]): -15.63%
Activity (Plasma [6]): 0%
Activity (Plasma [8]): -6%
Activity (Plasma [9]): -1.36%
Activity (Plasma [10]): -2.94%
Activity (Plasma [11]): -1.68%
Activity (Plasma [12]): -28.13%
Activity (Plasma [13]): -13.94%
Activity (Plasma [14]): -4.09%
Activity (Plasma [16]): -2.94%
Activity (Plasma [17]): -4.3%

IC50 (Plasma [15]): 202 µM
Structure (SMILES): Nc1nccs1 [AMINOTHIAZOLE]
Activity (Plasma [1]): -5.43%
Activity (Plasma [2]): -5.06%
Activity (Plasma [3]): -5.41%
Activity (Plasma [4]): 0%
Activity (Plasma [5]): -3.53%
Activity (Plasma [6]): 2.53%
Activity (Plasma [8]): -2%
Activity (Plasma [9]): -2.84%
Activity (Plasma [10]): -3.71%
Activity (Plasma [11]): -5.17%
Activity (Plasma [12]): -6.47%
Activity (Plasma [13]): -3.53%
Activity (Plasma [14]): -4.91%
Activity (Plasma [16]): -0.43%
Activity (Plasma [17]): -6.63%

IC50 (Plasma [15]): 46.2 µM
Structure (SMILES): O=S(=O)(O)c1cc(O)ccc1O [ETHAMSYLATE]
